Paper PMC7873226, “Molecular mechanism and structural basis of small-molecule modulation of the gating of acid-sensing ion channel 1” (Communications Biology, 2021)
Where a chain is given by its changes, count along the chain named. Where “and” joins values, the source holds several entries; their conditions need not be identical. Equal entries are not always repeated.

Legend:
Format in all cases: cell-based
[1] = molecular target: T1, rASIC1a F98A (Rattus norvegicus, UniProt P55926, F98A); experiment: Inhibition of pH 6.0-induced current of mutant channel F98A
T1 construct: expressed in transfected cells; host or cells: CHO cells, transient transfection (GFP cDNA co-transfected separately)
T1 sequence (P55926 1-526 F98A): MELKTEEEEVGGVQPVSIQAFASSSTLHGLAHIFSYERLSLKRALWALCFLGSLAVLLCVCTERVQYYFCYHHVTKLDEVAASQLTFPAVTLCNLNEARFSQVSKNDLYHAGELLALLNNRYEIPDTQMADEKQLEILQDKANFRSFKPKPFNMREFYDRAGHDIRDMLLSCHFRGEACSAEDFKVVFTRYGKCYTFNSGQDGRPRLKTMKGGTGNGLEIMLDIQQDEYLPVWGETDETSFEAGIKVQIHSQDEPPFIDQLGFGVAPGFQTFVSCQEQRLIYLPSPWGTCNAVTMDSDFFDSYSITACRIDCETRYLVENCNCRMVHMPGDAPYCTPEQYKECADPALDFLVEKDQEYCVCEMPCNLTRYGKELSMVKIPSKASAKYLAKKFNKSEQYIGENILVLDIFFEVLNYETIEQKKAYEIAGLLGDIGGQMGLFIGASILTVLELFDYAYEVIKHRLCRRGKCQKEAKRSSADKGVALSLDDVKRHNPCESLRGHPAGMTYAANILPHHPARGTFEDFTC
Procedure: (§1) Chinese Hamster Ovary (CHO) cells stably expressing rat ASIC1a were cultured in Ham’s F12, supplemented with 10% FBS, 1% penicillin–streptomycin and 500 µg/mL G418 and incubated at 37 °C with 5% CO2. Transient transfections of rASIC1a and cASIC1 wild-type or mutant channels in CHO cells were performed with Lipofectamine 3000 (Thermo Fisher Scientific) according to the manufacturer’s recommendations. The green fluorescent protein (GFP) cDNA (at 1/10 the amount of channel cDNA) was co-transfected with channel cDNA to aid the identification of transfected cells under the microscope in patch clamp experiments. All cDNAs were sequence verified.
Cells were freshly dissociated with CellStripper (Corning) and dispersed in a chamber on the stage of an inverted microscope. […]
All recordings were performed at room temperature using an Axopatch 200B amplifier and pClamp 11 software (Molecular Devices). Currents were measured by whole-cell patch clamp, digitized at 10 kHz and lowpass filtered at 2 kHz. […] Responses were elicited by rapid perfusion of acidic solutions using the SF-77B Fast-Step Perfusion device (Warner Instruments) for 40 ms once every 30 s (unless indicated otherwise) and recorded till steady state was reached. […]

[2] = molecular target: T2, rat ASIC1a (Rattus norvegicus, UniProt P55926); experiment: pH dependence of steady-state desensitization (whole-cell patch clamp)
T2 construct: expressed in transfected cells
T2 sequence (P55926 1-526): T1 sequence (P55926 1-526 F98A) with A98F
Procedure: as §1
(§2) Cells were freshly dissociated with CellStripper (Corning) and dispersed in a chamber on the stage of an inverted microscope. Upon formation of the whole-cell conformation, the cell was lifted from the bottom of the chamber and placed at the tip of a tubing perfusing an extracellular solution containing (in mM): 149 NaCl, 2 CaCl2, 4 KCl, 1 MgCl2, 5 glucose, 10 HEPES, pH 7.4, 310 mOsm/L. Extracellular solutions at more basic or acidic pHs were made by titrating the above pH 7.4 solution with NaOH or HCl (5 mM MES was added to solutions at pH 6.0 and lower). Pipette electrodes were filled with an intracellular solution containing (in mM): 135 KCl, 4 MgATP, 0.3 Na2GTP, 10 EGTA, and 20 HEPES, pH 7.2, 290 mOsm/L.
(§3) All recordings were performed at room temperature using an Axopatch 200B amplifier and pClamp 11 software (Molecular Devices). Currents were measured by whole-cell patch clamp, digitized at 10 kHz and lowpass filtered at 2 kHz. Series resistance was 75% compensated. Responses were elicited by rapid perfusion of acidic solutions using the SF-77B Fast-Step Perfusion device (Warner Instruments) for 40 ms once every 30 s (unless indicated otherwise) and recorded till steady state was reached. The holding potential was 0 mV unless indicated otherwise.
(§4) Baseline values (i.e., current amplitudes at the conditioning pH) were subtracted to obtain responses evoked by the test pH. Responses were normalized for each cell before averaging (see figure legends for more detail on normalization for each type of experiment). Concentration–response data were fitted to a logistic function of the form: R = (A1–A2)/(1 + (C/C0)^h)+A2, where R is the normalized response, C is either pH or compound concentration, C0 is the pH/concentration at which half-maximal response occurs (pH50 or IC50), h is the Hill coefficient, and A1 and A2 are constants. Kinetic parameters were obtained by fitting the data with either a single or double exponential function. Fitted data are shown as solid, dashed, or dotted curves.

[3] = molecular target: T2, rat ASIC1a; experiment: Kinetics of closed-state (pH 7.1-induced) desensitization and recovery; conditions: 100 nM
Procedure: as §1, §2, §3, §4

[4] = molecular target: T2, rat ASIC1a; experiment: pH dependence of channel activation (whole-cell patch clamp); conditions: holding pH 8.2
Procedure: as §1, §2, §3, §4

## COc1ccc(Oc2ccc(-c3nc4cc(C(=N)N)ccc4[nH]3)cc2)cc1OC [JNJ-799760]
[1]
  IC50: 0.726 ± 0.356 µM

## Cc1cc(N2CC(Oc3cc(F)c4c(N)n[nH]c4c3)C2)c(F)cn1 [JNJ-67869386]
[1]
  IC50: 0.626 ± 0.011 µM
[2]; 0.1 µM
  pH50 of steady-state desensitization: 7.30 ± 0.03
[2]; 1 µM
  pH50 of steady-state desensitization: 7.27 ± 0.01
[2]; 10 µM
  pH50 of steady-state desensitization: 7.26 ± 0.01
[2]; conditioning pH 6.8, 100 nM
  steady-state desensitization, current % of conditioning pH 8.2, mean: 0.13%
[2]; conditioning pH 6.8, 1 uM
  steady-state desensitization, current % of conditioning pH 8.2, mean: 0.0205%
[2]; conditioning pH 6.8, 10 uM
  steady-state desensitization, current % of conditioning pH 8.2, mean: -0.0952%
[2]; conditioning pH 7.1, 100 nM
  steady-state desensitization, current % of conditioning pH 8.2, mean: 1.6%
[2]; conditioning pH 7.1, 1 uM
  steady-state desensitization, current % of conditioning pH 8.2, mean: 9.0%
[2]; conditioning pH 7.1, 10 uM
  steady-state desensitization, current % of conditioning pH 8.2, mean: 10.8%
[2]; conditioning pH 7.4, 100 nM
  steady-state desensitization, current % of conditioning pH 8.2, mean: 88.8%
[2]; conditioning pH 7.4, 1 uM
  steady-state desensitization, current % of conditioning pH 8.2, mean: 84.6%
[2]; conditioning pH 7.4, 10 uM
  steady-state desensitization, current % of conditioning pH 8.2, mean: 85.5%
[2]; conditioning pH 7.8, 100 nM
  steady-state desensitization, current % of conditioning pH 8.2, mean: 98.6%
[2]; conditioning pH 7.8, 1 uM
  steady-state desensitization, current % of conditioning pH 8.2, mean: 95.5%
[2]; conditioning pH 7.8, 10 uM
  steady-state desensitization, current % of conditioning pH 8.2, mean: 95.9%
[2]; conditioning pH 8.2, 100 nM
  steady-state desensitization, current % of conditioning pH 8.2, mean: 100%
[2]; conditioning pH 8.2, 1 uM
  steady-state desensitization, current % of conditioning pH 8.2, mean: 100%
[2]; conditioning pH 8.2, 10 uM
  steady-state desensitization, current % of conditioning pH 8.2, mean: 100%
[3]; 0.8 s in pH 7.1 (source data Fig. 3c)
  current remaining during pH 7.1-induced desensitization, normalized to pre-pH 7.1 pH 6.0 peak, mean: 75.8
[3]; 1.6 s in pH 7.1
  current remaining during pH 7.1-induced desensitization, normalized to pre-pH 7.1 pH 6.0 peak, mean: 70.1
[3]; 3.2 s in pH 7.1
  current remaining during pH 7.1-induced desensitization, normalized to pre-pH 7.1 pH 6.0 peak, mean: 61.0
[3]; 6.4 s in pH 7.1
  current remaining during pH 7.1-induced desensitization, normalized to pre-pH 7.1 pH 6.0 peak, mean: 50.5
[3]; 12.8 s in pH 7.1
  current remaining during pH 7.1-induced desensitization, normalized to pre-pH 7.1 pH 6.0 peak, mean: 36.9
[3]; 25.6 s in pH 7.1
  current remaining during pH 7.1-induced desensitization, normalized to pre-pH 7.1 pH 6.0 peak, mean: 20.0
[3]; 51.2 s in pH 7.1
  current remaining during pH 7.1-induced desensitization, normalized to pre-pH 7.1 pH 6.0 peak, mean: 8.7
[3]; 102.4 s in pH 7.1
  current remaining during pH 7.1-induced desensitization, normalized to pre-pH 7.1 pH 6.0 peak, mean: 4.9
[3]; 204.8 s in pH 7.1
  current remaining during pH 7.1-induced desensitization, normalized to pre-pH 7.1 pH 6.0 peak, mean: 3.1
[3]; single exponential, pH 6.0 test pulses
  time constant of development of pH 7.1-induced desensitization: 15.1 s and 15.1 ± 1.3 s
[4]; 10 nM
  max %response of channel activation: 95.3 ± 1.6%
  pH50 of channel activation: 6.02 ± 0.03
[4]; 30 nM
  max %response of channel activation: 88.1 ± 1.0%
  pH50 of channel activation: 5.87 ± 0.02
[4]; 100 nM
  max %response of channel activation: 82.6 ± 0.3%
  pH50 of channel activation: 5.73 ± 0.00
[4]; 300 nM
  max %response of channel activation: 84.1 ± 0.5%
  pH50 of channel activation: 5.70 ± 0.01
[4]; 1000 nM
  max %response of channel activation: 87.4 ± 0.5%
  pH50 of channel activation: 5.68 ± 0.01
[4]; 3000 nM
  max %response of channel activation: 82.9 ± 0.5%
  pH50 of channel activation: 5.70 ± 0.01
